This note sets out measurements from a melting point compilation (Tetko et al.).

As usually defined, the melting point is the temperature of the solid-liquid transition.

As for `CC(=O)Oc1ccc(C2(c3ccc(OC(C)=O)cc3)C(=O)Nc3ccccc32)cc1`, the melting point amounted to 242 °C.

With `CC1C=CCCC1` (configuration not stated), the melting point was -124 °C.

Consider `COc1ccccc1N1CCN(CC(C)N(C(=O)C2CCCCC2)c2ccccn2)CC1` (configuration not stated), for which the melting point is 90 to 91 °C.

As for `CC(C)(C)C(=O)Nc1ncccc1C=O`, the melting point is 87 to 91 °C.

`Clc1cnc(Cl)c(Cl)c1` had a melting point of 49 °C.

As to `O=C1CCCCCO1`, the melting point was -1 °C.

The compound `Cc1cc(C)c(CC#N)c(C)c1` registered a melting point of 78.5 °C.

As to `c1ccc(C2OC2c2ccccc2)cc1` (configuration not stated), the melting point is 67 to 70 °C.

Compound `NNC(=O)c1ccc(Cl)nc1` gave a melting point of 250 °C.

`CCCCCCOC(=O)c1ccccc1C(=O)OCCCCCC`: the melting point was -58 °C.

`O=C(O)CC(c1ccccc1)c1ccccc1` gave a melting point of 150 to 155 °C.

As to `Nc1cc[nH]n1`, the melting point is 37 °C.

For `CCCCCCCCN1CCCC1=O`, the melting point is -25 °C.

In turn, `CN(C)c1ccc(C=Cc2nc3ccccc3s2)cc1` displayed a melting point of 210 °C.

For `C1=COCCC1`, the melting point was -70 °C.

Regarding `FC(F)(F)c1cc(C(F)(F)F)c(C(F)(F)F)cc1C(F)(F)F`, the melting point fell in the range of 73 to 74 °C.

On to `O=C(O)C=Cc1ccc(OC(F)(F)F)cc1`, for which the melting point is 178 to 179 °C.

On to `NNC(=O)c1cc2cc(OCc3ccccc3)ccc2[nH]1`, for which the melting point lay in the range of 219 to 221 °C.

The compound `COc1cccc(-c2ccc(C(=O)O)o2)c1` registered a melting point of 169 to 170 °C.

Consider `CC(C)CCOC(=O)C(=O)OCCC(C)C`, for which the melting point is -9 °C.

Regarding `Cc1ccc(C#N)c(S(=O)(=O)Cl)c1`, the melting point fell in the range of 71 to 73 °C.

In turn, `Cc1ccc(S(=O)(=O)O)c(C)c1` registered a melting point of 57 °C.

On to `O=C(O)C(Cc1ccc([N+](=O)[O-])cc1)c1ccccc1` (configuration not stated), for which the melting point was found to be 152 °C.

Regarding `Nc1c(CN2CCOCC2)c(=O)oc2ccccc12`, the melting point was 192 °C.

`CCCCOc1ccc(OCCCC)cc1` came in with a melting point of 45.5 °C.

Compound `C(=NN=Cc1ccccc1)c1ccccc1` showed a melting point of 93 °C.

The compound `NC(=O)c1ccc(C(=O)O)cc1` yielded a melting point of 300 °C.

In the case of `O=C=Nc1ccc(I)cc1`, the melting point worked out at 45 °C.

Take `CCN1C(=O)OC(C)(C)C1=O`: the melting point is 76.5 °C.

In turn, `O=C(O)c1cc(I)c(O)c(I)c1` returned a melting point of 237 °C.

In the case of `CC(=O)c1sc2nc(-c3cccs3)cc(C(F)(F)F)c2c1N`, the melting point fell in the range of 171 to 172 °C.

The compound `CSc1nc2[nH]c(Cc3ccccc3)nc(=O)c2n1C` yielded a melting point of 286 °C.

`Cc1nnc(-c2ccccc2)c2noc(C)c12`: the melting point was 180 °C.

In turn, `CNC(=O)N(C)c1nc2ccccc2s1` yielded a melting point of 120 °C.

For the compound `CCCCOCCOC(C)=O`, the melting point is -63 °C.

`O=C(Cl)c1cnn(-c2ccccc2)c1C(F)(F)F`: the melting point was 40 to 41 °C.

Take `CNC1CC2OC(C)(C1OC)n1c3ccccc3c3c4c(c5c6ccccc6n2c5c31)C(=O)NC4` (configuration not stated): the melting point was 270 °C.

The compound `CCCCN(C(C)=O)c1ccccc1` had a melting point of 24.5 °C.

In turn, `O=C1OC2(c3ccccc31)c1ccc(O)c(Br)c1Oc1c2ccc(O)c1Br` displayed a melting point of 285 °C.

`CC1C(=O)C2(C)CCC1C2(C)C` (configuration not stated) came in with a melting point of 38 °C.

Compound `O=C(Cl)c1sccc1Br` gave a melting point of 65 to 67 °C.

Take `O=C(O)CC(F)(F)F`: the melting point was 9.7 °C.

The compound `CCCCCC(N)P(=O)(O)O` (configuration not stated) displayed a melting point of 265 to 268 °C.

For the compound `c1ccc(C2=NCCN=C2c2ccccc2)cc1`, the melting point lay in the range of 160 to 163 °C.

Consider `O=C(Cl)c1ccc(Oc2ccccc2)cc1`, for which the melting point lay in the range of 22 to 23 °C.

Regarding `c1cc2c(ccc3nonc32)nn1`, the melting point was 139 to 141 °C.

Regarding `C[Si](C)(C)OS(=O)(=O)O[Si](C)(C)C`, the melting point lay within 47 to 50 °C.

As to `O=C(O)/C(=C/c1ccccc1)Cc1ccccc1`, the melting point was 157 to 158 °C.

In turn, `O=C(OCC(=O)N1CCOCC1)c1ccccc1` returned a melting point of 104 °C.

`Cc1ccccc1N1CCNCC1` returned a melting point of 48 to 52 °C.

`CCCCCC(C)(C)C`: the melting point is -113 °C.

With `COC(=O)C(=O)C1CCc2cc(OC)ccc2C1=O` (configuration not stated), the melting point is 71 °C.

In turn, `CCOC(=O)c1c(C)oc(NC(=O)Nc2ccccc2)c1C(=O)OCC` showed a melting point of 110 to 112 °C.

As to `Cc1ccc(N2CCNCC2)cc1C`, the melting point was found to be 63 °C.

For the compound `CC(=O)OCCOCCOC(C)=O`, the melting point turned out to be 18 °C.

On to `OC1C=C2CCN3Cc4cc5c(cc4C(C1O)C23)OCO5` (configuration not stated), for which the melting point came to 280 °C.

The compound `CC(=O)c1ccc(Cl)c([N+](=O)[O-])c1` returned a melting point of 98 °C.

Compound `CC1CNC(C(C2=NCC(C)N2)C2=NCC(C)N2)=N1` (configuration not stated) registered a melting point of 241 to 242 °C.

Turning to `Oc1c(Cl)cc(F)cc1Cl`, the melting point fell in the range of 49 to 52 °C.

`CCOC(=O)c1[nH]c2cc(Cl)cc(Cl)c2c1C=O`: the melting point was 213 to 217 °C.

In the case of `CC1CCC(C(C)C)C(OC(=O)C(c2ccccc2)c2ccccc2)C1` (configuration not stated), the melting point turned out to be 53 °C.

Compound `Cc1c(F)c(F)c(CBr)c(F)c1F` yielded a melting point of 42 °C.

`NNC(=O)C(=O)NN` yielded a melting point of 239 to 243 °C.

For the compound `CC(=O)Nc1ccc(N=Nc2ccc(N=Nc3ccc(/N=N/c4ccc(NC(C)=O)cc4)cc3)cc2)cc1`, the melting point lay in the range of 245 to 248 °C.

As to `Cc1c(NC=C2C(=O)NN=C2c2c(O)c3ccccc3n(C)c2=O)c(=O)n(-c2ccccc2)n1C`, the melting point was 175 °C.

In turn, `CON=C(C(=O)NC1C(=O)N2C(C(=O)OCOC(=O)C(C)(C)C)=C(C=Cc3scnc3C)CSC12)c1csc(N)n1` (configuration not stated) displayed a melting point of 128 °C.

As for `CCOC(=O)N(c1ccccc1)c1ccccc1`, the melting point stood at 72 °C.

In the case of `CC(C)(Cc1ccc(F)cc1)N=Cc1ccccc1`, the melting point worked out at 44 °C.

In turn, `Cc1ccc(S(=O)(=O)OCCOCc2ccccc2)cc1` returned a melting point of 48 to 51 °C.

Consider `COC(=O)c1c(SC)nc(-c2ccccc2)[nH]c1=O`, for which the melting point was 283 to 285 °C.

In the case of `COc1cc(C=CC(=O)O)cc(Br)c1O`, the melting point is 256 °C.

Take `Cc1n[nH]c(C)c1Oc1ccc(Cl)cc1`: the melting point lay in the range of 139 to 141 °C.

Consider `Nc1ccnc(N)n1`, for which the melting point fell in the range of 143 to 148 °C.

Regarding `CC(=O)Nc1ccc(C)cc1C`, the melting point was determined as 129 °C.

Consider `O=S1(=O)OC2(c3ccccc31)c1ccc(O)c(O)c1Oc1c2ccc(O)c1O`, for which the melting point worked out at 300 °C.

Regarding `C=COCCCCCCCCCC`, the melting point is -41 °C.

As to `C#CCO`, the melting point is -51.8 °C.

`O=C(Nc1cccc2ccccc12)Nc1cccc2ccccc12`: the melting point is 296 °C.

With `COC1CCCCCCCCCCC1`, the melting point amounted to 8 °C.

Turning to `N#CC(=CN1CCOCC1)C(N)=O`, the melting point is 173 to 177 °C.

`CCCOCC(=Nc1ccc(Cl)cc1C(F)(F)F)n1ccnc1` yielded a melting point of 63.5 °C.

`O=Cc1ccc(O)c(O)c1O` came in with a melting point of 163 °C.

`CCOC(=O)CNc1nc(Cl)nc(NC(C)C)n1`: the melting point came to 110 °C.

In turn, `Cc1ncc([N+](=O)[O-])n1CCCN1C(=O)c2ccccc2C1=O` displayed a melting point of 168 to 169 °C.

Compound `Nc1ccc(C=Cc2ccc(N)cc2OS(=O)(=O)c2ccccc2)c(OS(=O)(=O)c2ccccc2)c1` came in with a melting point of 250 °C.

Compound `Oc1ccc(Nc2ccc3ccccc3c2)cc1` gave a melting point of 140 °C.

On to `Cc1cc(C2CCCCC2)n(O)c(=O)c1`, for which the melting point stood at 144 °C.

`CC(C)=CC1C(C(=O)OCN2C(=O)C3=C(CCCC3)C2=O)C1(C)C` (configuration not stated) had a melting point of 69 °C.

For `COC(=O)C1(C(=O)OC)Cc2cc(OC)ccc2C(=O)O1`, the melting point was determined as 134 °C.

`Brc1ccc2occ(Br)c2c1`: the melting point lay in the range of 77 to 78 °C.

`C/C(=N/NC(N)=O)C1=CC2(C)CCC1C2(C)C` (configuration not stated): the melting point was determined as 218 °C.

`OCc1cc(O)ccc1I` registered a melting point of 146 to 148 °C.

The compound `CCOC(=O)C1=C(C)NC(=O)NC1c1ccc2c(c1)OCO2` (configuration not stated) showed a melting point of 189 °C.

Turning to `Nc1c(F)ccc(F)c1Cl`, the melting point is 29 °C.

The compound `COC(=O)c1cncc(C)c1` returned a melting point of 44 °C.

For the compound `CSC(=Nc1nccs1)SC`, the melting point lay within 194 to 195 °C.

For the compound `ON=C(c1ccccc1)c1ccccc1`, the melting point lay in the range of 140 to 144 °C.

In the case of `O=C(c1ccc(Cl)cc1)c1nn(-c2ccccc2)/c(=N\N=Cc2ccc(F)cc2)s1`, the melting point is 150 °C.

`O=C1NC(=S)NC(=O)C1=NNc1ccc(Br)cc1`: the melting point was determined as 268 °C.

On to `NC1CC1`, for which the melting point is -10 °C.

Take `CCOC(=O)c1cc(C)nc(Cl)c1C#N`: the melting point lay within 58 to 60 °C.

In turn, `N#CC(=Cc1cccs1)c1nc2ccccc2s1` gave a melting point of 148 °C.

`COc1ccc(C(CCC(=O)O)C(C)(C)C(=O)O)cc1` (configuration not stated): the melting point was found to be 121 °C.

`CS(=O)(=O)n1ccnc1` returned a melting point of 86 to 88 °C.

The compound `CCOC(=O)CC=C(c1ccc(OC)cc1)C(C)(C)C(=O)OCC` showed a melting point of 146 °C.

`O=C(O)C(F)c1ccccc1` (configuration not stated): the melting point is 82 to 85 °C.

`CC12CCC(CC1=NO)C2(C)C` (configuration not stated) had a melting point of 118 °C.

`O=C(NC(Cc1ccccn1)C(=O)O)OCC1c2ccccc2-c2ccccc21` (configuration not stated) returned a melting point of 154 °C.

With `CS(=O)(=O)Oc1ccccc1`, the melting point was 62 to 63 °C.

As for `O=C1c2ccc(O)cc2C(=O)c2cc(O)ccc21`, the melting point was determined as 354 °C.

Take `O=[N+]([O-])c1ccc(C2Nn3c(nnc3-c3ccccc3)S2)cc1` (configuration not stated): the melting point was determined as 225 °C.

`Cc1ccc(C)c2c1COC2=O` showed a melting point of 88 °C.
